# Measured values: US20170304236A1, “ANTIALLERGIC AGENT” (TOHOKU UNIVERSITY, priority 2015, published 2017)
# Tests used:
# IKK, IκB, STAT6 = experiment: Western blot of NF-κB-activating signal and STAT6 phosphorylation in HaCaT cells; type: cell-based, human; conditions: 10 minutes; for TNF-α+IL-4 stimulation-induced increase in phosphorylation of IKK / TNF-α+IL-4 stimulation-induced reduction in inhibitory protein IκB of NF-κB: 16D10 100 μM
# NF-κB [1] = experiment: NF-κB luciferase reporter assay in HaCaT cells; type: cell-based, human; conditions: TNF-α 100 ng/ml, 2 hours, 16D10 10 or 100 μM, TPCA-1 10 μM
# Description: The transfection of Path Detect pNF-κB-Luc Plasmid (Stratagane) was performed with X-tremeGENE HP DNA Transfection Reagent in accordance with an accompanying protocol. Human keratinocyte HaCaT cells were seeded at 0.65×10^5 cells/ml into a 12-well plate (Falcon (trademark)), and cultured for 24 hours. […], first, to 50 μl of Opti-MEM at from 15° C. to 25° C., a 500 ng/μl reporter plasmid solution and a 100 ng/μl pGL4.74[hRluc/TK] Vector solution were added at 1 μl each. Next, 1. 5 μl of X-tremeGENE HP DNA Transfection Reagent was added, and the contents were lightly mixed by inversion and then left to standstill at room temperature for 15 minutes to form a transfection complex. Further, the culture supernatant was removed from the cells that had been cultured for 24 hours, and the cells were washed with PBS. After that, 950 μl of 10% FBS-containing MEMα was added to each well. […]
# (§1) The measurement of luciferase activity was performed with Dual-Luciferase (trademark) Reporter Assay System in accordance with an accompanying protocol. […] Immediately after that, a Firefly luciferase luminescence integrated value for 10 seconds was calculated with AB-2200-R Luminescencer PSN (ATTO Corporation). After that, 50 μl of Stop&Glo reagent was added and the contents were lightly mixed, and then a Renilla luciferase luminescence integrated value for 10 seconds was measured.
# TSLP [2] = experiment: OVA air pouch model in ICR mouse; type: in vivo
# Description: (§2) 500 μl of air was subcutaneously injected into the back of an ICR mouse (6-week-old, male, SLC) to form an air pouch (day 1). Further, 500 μl each of air was injected into the air pouch on day 2, day 5, and day 7. 24 hours after that, 300 μl of a solution prepared by dissolving ovalbumin (OVA) at 100 μg/0.3 ml in 2% (w/v) CMC-Na physiological saline that had been subjected to high-pressure steam sterilization and further dissolving penicillin G potassium and streptomycin sulfate at 0.1 mg/ml each therein was injected into the air pouch to induce inflammation. […]
# 8 hours after the administration of the solution into the air pouch, the mouse was killed through blood removal by cutting the carotid artery under anesthesia. 300 μl of physiological saline was injected into the air pouch so as to be mixed with air pouch internal fluid, and then the air pouch internal fluid was collected and its weight was measured. Its TSLP concentration was measured with Mouse TSLP DuoSet (trademark) ELISA (R&D Systems) in accordance with an accompanying protocol. 14 days after the administration of the solution into the air pouch, blood was collected, and the amount of OVA-specific IgE in serum was measured with an ELISA kit (Anti-ovalbumin IgE (mouse) EIA kit (Cayman 500840)).
# TSLP [3] = experiment: TSLP production in KCMH-1 cells (ELISA); type: cell-based, mouse; conditions: 24 hours, culture supernatant
# Description: KCMH-1 cells (J. Immunol. Methods 402: 9-14 (2013)) were suspended in 10% FBS-containing MEM-α at 1.0×10^5 cells/mL.
# The culture supernatant was collected, and a TSLP amount was measured with Mouse TSLP DuoSet (trademark) ELISA (R&D Systems).
# TSLP [4] = experiment: TSLP production by TNF-α stimulation in PAM212 cells (ELISA); type: cell-based, mouse; conditions: TNF-α 30 ng/ml, 16D10 1, 3 and 10 μM, 48 hours
# Description: After the culture, TSLP in the culture solution was measured by EILSA.
# various kinases = experiment: Off-chip Mobility Shift Assay kinase panel (Carna Biosciences); type: biochemical; conditions: 16D10 at 10 μM
# Description: Carna Biosciences, Inc. was entrusted to measure the effect of the test compound 16D10 at 10 μM on the activity of each kinase by Off-chip Mobility Shift Assay (MSA) described on the website of Carna Biosciences, Inc. (http://www.carnabio.com/output/pdf/ProfilingProfilingBook_ja. pdf). Specifically, the measurement was performed by the following method.
# The test compound is dissolved in and diluted with DMSO to a 100-fold concentration. Then, the solution is diluted 25-fold with assay buffer to prepare a test compound solution. A control is similarly prepared.
# (1) […] of a 4-fold compound solution, 5 mL of a 4-fold Substrate/ATP/Metal solution, and […] of a 2-fold kinase solution are prepared with assay buffer (20 mM HEPES, 0.01% Triton X-100, 2 mM DTT, pH 7.5), and are mixed and incubated in a polypropylene 384-well plate at room temperature for from 1 hour or 5 hours* (*the reaction time is set depending on the kinase); (2) […] of termination buffer (QuickScout Screening Assist MSA; Carna Biosciences) is added to each well; (3) the reaction mixture is applied to a LabChip™ system (PerkinElmer), and the peaks of a product and a substrate peptide are separated and quantified; and (4) a kinase reaction is evaluated on the basis of a product ratio (P/(P+S)) calculated from the peak heights of the product (P) and the substrate (S) peptide.
# TSLP [5] = experiment: LPS-induced air pouch inflammation in Balb/c mouse; type: in vivo; conditions: 8 hours after administration into the air pouch
# Description: as §2, with “a Balb/c” for “an ICR”, “LPS” for “ovalbumin (OVA)”, “10 ng/ml” for “100 μg/0.3 ml”
# 8 hours after the administration of the solution into the air pouch, the mouse was killed through blood removal by cutting the carotid artery under anesthesia. 300 μl of physiological saline was injected into the air pouch so as to be mixed with air pouch internal fluid, and then the air pouch internal fluid was collected and its weight was measured. An infiltrating leukocyte count was measured with a hemocytometer after the collected air pouch internal fluid had been diluted with physiological saline as appropriate. […] The supernatant was collected, and its TSLP concentration was measured with Mouse TSLP DuoSet (trademark) ELISA (R&D Systems) in accordance with an accompanying protocol. […]
# NF-κB [6] = experiment: NF-κB luciferase reporter assay in KCMH-1 cells; type: cell-based, mouse; conditions: 16D10 10 μM
# Description: The transfection of Path Detect pNF-κB-Luc Plasmid (Stratagane) was performed with X-tremeGENE HP DNA Transfection Reagent in accordance with an accompanying protocol. Mouse keratinocyte KCMH-1 cells were seeded at 1×10^5 cells/ml into a 12-well plate (Falcon (trademark)), and cultured for 24 hours. The following day, first, to 50 μl of Opti-MEM at from 15° C. to 25° C., a 500 ng/μl reporter plasmid solution and a 100 ng/μl pGL4.74 [hRluc/TK] Vector solution were added at 1 μl each. Next, 1.5 μl of X-tremeGENE HP DNA Transfection Reagent was added, and the contents were lightly mixed by inversion and then left to stand still at room temperature for 15 minutes to form a transfection complex. Further, the culture supernatant was removed from the cells that had been cultured for 24 hours, and the cells were washed with PBS. After that, 950 μl of 10% FBS-containing MEMα was added to each well. […]
# as §1
# TSLP mRNA = TSLP mRNA expression in stimulated HaCaT cells (real-time PCR); type: cell-based, human; conditions: 16D10 10 and 100 μM, 4 hours
# Source text: […] […] Forward: [NT], Reverse: [NT] rRNA forward: [NT], Reverse: [NT].
Structure (SMILES),"TNF-α+IL-4 stimulation-induced increase in phosphorylation of IKK (IKK, IκB, STAT6)","TNF-α+IL-4 stimulation-induced reduction in inhibitory protein IκB of NF-κB (IKK, IκB, STAT6)",transcriptional activity of NF-κB (NF-κB [1]),OVA-specific IgE in serum (TSLP [2]; 14 days after administration into the air pouch),"TSLP production by OVA (TSLP [2]; air pouch internal fluid, 8 hours after administration)",TSLP production-suppressing ability (TSLP [3]),TSLP production by TNF-α (TSLP [4]),"increase in phosphorylation of STAT6 by stimulation (IKK, IκB, STAT6; TNF-α + IL-4, 16D10 100 μM)",activity of each kinase (various kinases),TSLP concentration in air pouch internal fluid (TSLP [5]),infiltrating leukocyte count (TSLP [5]),"transcriptional activity of NF-κB (NF-κB [6]; KCMH-1 cells, 24 hours)",TSLP production (NF-κB [6]; KCMH-1 mouse keratinocyte cell line),expression of TSLP mRNA (TSLP mRNA; Poly(I:C) 50 μg/ml stimulation),expression of TSLP mRNA (TSLP mRNA; TNF-α 100 ng/ml stimulation)
"NC(=O)Nc1sc(-c2ccc(F)cc2)cc1C(N)=O [TPCA-1, [5-(p-Fluorophennyl)-2-ureido]thiophene-3-carboxamide, reference compound]",suppressed,suppressed,suppressed the transcriptional activity of NF-κB,–,–,–,–,–,–,–,–,–,–,–,–
"COc1ccc(OC)c(/C=C/C(=O)c2cc(OC)c(OC)cc2CCNC(C)=O)c1 [16D10, (E)-N-[2-[2-[3-(2,5-dimethoxyphenyl)-1-oxo-2-propen-1-yl]-4,5-dimethoxyphenyl]ethyl]acetamide]",not suppressed,not suppressed,did not suppress the activity,suppressed the production of OVA-specific IgE,significantly suppressed TSLP production by OVA,extremely high TSLP production-suppressing ability,suppressed TSLP production by TNF-α in a concentration-dependent manner,did not suppress,did not suppress the activity of each kinase analyzed,significantly suppressed TSLP production,did not reduce infiltrating leucocytes,without suppressing the transcriptional activity of NF-κB,suppressed TSLP production,suppressed,suppressed
